This note sets out measurements from publication PMC4644822, “Extracellular α-Galactosidase from Trichoderma sp. (WF-3): Optimization of Enzyme Production and Biochemical Characterization” (Biotechnology Research International, 2015).

The test system of the assay is T1, extracellular α-galactosidase from Trichoderma sp. (WF-3).
T1 construct: gene agl1; native secreted enzyme, unpurified culture filtrate
Nature of the assay: p-nitrophenol release at […] nm, Lineweaver-Burk plot. The assay is classed as biochemical. The settings on record: culture filtrate (unpurified); standard assay 0.05 M sodium acetate pH 5.0, 50 °C, 10 min; 0.05-4.5 mM substrate; read-out: apparent K m.

`O=[N+]([O-])c1ccc(O[C@H]2O[C@H](CO)[C@H](O)[C@H](O)[C@H]2O)cc1` [pNPGal, p-nitrophenyl-α-D-galactopyranoside]: the Km came out at 500 µM.
